According to patent publication US10272082B2, “Combination ALS therapy” (Cytokinetics, Inc., priority 2011, dated 2019):
Entries after “also recorded” stand apart in the source; their conditions may differ.

Assays:
clinical = conditions: human, plasma, CK-2017357 Cmax, 14 days, ALS patients
CYP1A2 = biological target: T1, CYP1A2 (Homo sapiens, UniProt P05177); test: Mechanism-based inhibition of human CYP1A2 in vitro; assay type: in vitro ADME
T1 sequence (P05177 1-516): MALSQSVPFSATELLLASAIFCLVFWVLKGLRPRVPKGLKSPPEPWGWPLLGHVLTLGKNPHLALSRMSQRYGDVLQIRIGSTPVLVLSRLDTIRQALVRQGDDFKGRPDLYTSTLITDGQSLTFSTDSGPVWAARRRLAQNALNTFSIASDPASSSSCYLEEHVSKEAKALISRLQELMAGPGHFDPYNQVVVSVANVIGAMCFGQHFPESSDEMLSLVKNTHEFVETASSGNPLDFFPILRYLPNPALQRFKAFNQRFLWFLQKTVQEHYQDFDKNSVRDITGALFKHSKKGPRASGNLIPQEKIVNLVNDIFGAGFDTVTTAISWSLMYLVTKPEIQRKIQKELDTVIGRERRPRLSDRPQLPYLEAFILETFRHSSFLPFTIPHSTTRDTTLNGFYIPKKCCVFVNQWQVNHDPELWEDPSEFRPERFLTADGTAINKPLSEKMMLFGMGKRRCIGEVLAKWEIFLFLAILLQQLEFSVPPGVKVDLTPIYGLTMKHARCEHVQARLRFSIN

[1] = Example 4: twice-daily dose titration regimen of CK-2017357 in patients with ALS; assay type: in vivo
Excerpt: Patients enrolled in this clinical study were randomized, double-blind, and placebo-controlled.
Placebo patients underwent a similar dummy dose titration to maintain the blind. FIG. 4 illustrates the study design.

[2] = ALS patients
[3] = Previous clinical experiments with CK-2017357 once a day in the morning; assay type: in vivo, human
Excerpt: In previous clinical experiments, 1-(ethylpropyl)-6-ethynylimidazo[4,5-b]pyrazin-2-ol (CK-2017357) has been administered once a day in the morning. While improvements in patient and investigator global assessments, muscle fatigability and pulmonary function have been observed in these studies, dizziness has been a dose-limiting adverse event in both healthy volunteers and in patients with ALS. This example examines whether the maximum tolerable total daily dose of CK-2017357 can be increased by dividing the daily dose into two portions (morning and evening), and beginning treatment with a low dose and titrating upward to a target of 250 mg twice daily.

human hepatic microsomes = conditions: in vitro; high concentrations required; cited from earlier work
[4] = repeated single daily doses 125-375 mg

## C#Cc1cnc2nc(O)n(C(CC)CC)c2n1 [CK-2017357, 6-Ethynyl-1-(pentan-3-yl)-1H-imidazo[4,5-b]pyrazin-2(3H)-one]
clinical; 50 mg, CK-2017357 daily dose 125 (mg), On Riluzole (50 mg daily)
  Cmax: 6000 ng/mL
clinical; 50 mg, CK-2017357 daily dose 250 (mg), On Riluzole (50 mg daily)
  Cmax: 8400 ng/mL
clinical; 50 mg, CK-2017357 daily dose 375 (mg), On Riluzole (50 mg daily)
  Cmax: 13500 ng/mL
clinical; 125 mg, CK-2017357 daily dose 125 (mg), No Riluzole
  Cmax: 4100 ng/mL
clinical; 250 mg, CK-2017357 daily dose 250 (mg), No Riluzole
  Cmax: 7400 ng/mL
clinical; 375 mg, CK-2017357 daily dose 375 (mg), No Riluzole
  Cmax: 12700 ng/mL
CYP1A2; read-out: K1 (inactivation constant)
  KI (inactivation): 1.9 µM
CYP1A2; read-out: kinact (max rate constant for inactivation) (converted)
  kinact: 0.000517 s⁻¹
[1]; ALS patients
  safety and tolerability of twice-daily dose titration regimen: safe and well tolerated
[1]; CK-2017357 relative to placebo, ALS patients
  ALSFRS-R score and MVV: Encouraging trends toward increases
[1]; of 12 patients in whom it occurred
  patients in whom dizziness was self-limited: 6 patients
[1]; of the 12 patients in whom it occurred
  patients in whom dizziness was mild: 10 patients
[1]; of the 21 patients randomized to CK-2017357, twice-daily titration, riluzole 50 mg QD
  patients escalated to the highest total daily dose of 500 mg and completing three weeks of dosing: 14 patients
[1]; twice-daily dose titration 250-500 mg total daily, ALS patients
  most commonly reported treatment-emergent adverse event: dizziness
[2]; 125, 250, 375 mg daily for 14 days
  dose dependence of CK-2017357 pharmacokinetics: increased proportionally by dose; also recorded: predictable linear kinetics
[2]; at any dose of CK-2017357
  adverse event frequencies in the presence of riluzole: not altered
[2]; [4]
  plasma levels achieved steady state by: ≤ 8 days
  time to reach steady state: ≤ 1 week
[2]; repeated single daily doses
  plasma level four hours after dosing on Day 8 higher than four hours after first dose on Day 1: approximately 70%
[2]; riluzole 50 mg daily vs none
  effect of riluzole on CK-2017357 Cmax / plasma levels: no apparent effect of riluzole; also recorded: not affected
[3]; healthy volunteers and patients with ALS
  dose-limiting adverse event: dizziness
[3]; previous clinical experiments
  patient and investigator global assessments, muscle fatigability and pulmonary function: improvements

## CN(C)CCC=C1c2ccccc2CCc2ccccc21 [amitriptyline]
Human hepatic microsomes
  inhibition of the metabolism of riluzole by human hepatic microsomes: inhibition has been observed

## CN(C)CCCN1c2ccccc2CCc2ccc(Cl)cc21 [clomipramine]
Human hepatic microsomes
  inhibition of the metabolism of riluzole by human hepatic microsomes: inhibition has been observed

## O=C(O)Cc1ccccc1Nc1c(Cl)cccc1Cl [diclofenac]
Human hepatic microsomes
  inhibition of the metabolism of riluzole by human hepatic microsomes: inhibition has been observed

## CO[C@]12C[C@@H](COC(=O)c3cncc(Br)c3)CN(C)[C@@H]1Cc1cn(C)c3cccc2c13 [nicergoline]
Human hepatic microsomes
  inhibition of the metabolism of riluzole by human hepatic microsomes: inhibition has been observed
